Measurements from the supplement of paper PMC10307832.

How the values were obtained:
Experiment in all cases: relative viability (nuclei count vs DMSO), 5 days (fraction); higher = more cells survive
TPCA-1 + Navitoclax = compound: C1=CC(=CC=C1C2=CC(=C(S2)NC(=O)N)C(=O)N)F [TPCA-1] + CC1(C)CCC(c2ccc(Cl)cc2)=C(CN2CCN(c3ccc(C(=O)NS(=O)(=O)c4ccc(N[C@H](CCN5CCOCC5)CSc5ccccc5)c(S(=O)(=O)C(F)(F)F)c4)cc3)CC2)C1 [Navitoclax] (partner 0.5 µM)
Method in brief: (§1)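 Each reported value is a median over duplicate plates. It expresses relative viability: treated-well nuclei count divided by vehicle-well nuclei count. Lung cancer cell lines in 1536-well plates were dosed by pin tool a day after seeding, alone with one drug or with a fixed anchor-drug dose plus five library-drug doses (not always all listed) in √10 steps, and nuclei were counted after 5 days.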

TPCA-1 + Palbociclib = compound: C1=CC(=CC=C1C2=CC(=C(S2)NC(=O)N)C(=O)N)F [TPCA-1] + CC(=O)c1c(C)c2cnc(Nc3ccc(N4CCNCC4)cn3)nc2n(C2CCCC2)c1=O [Palbociclib] (partner 0.5 µM)
Method in brief: as §1

Lestaurtinib + AZD7762 = compound: C[C@]12O[C@H](C[C@]1(O)CO)n1c3ccccc3c3c4c(c5c6ccccc6n2c5c31)CNC4=O [Lestaurtinib] + NC(=O)Nc1cc(-c2cccc(F)c2)sc1C(=O)N[C@H]1CCCNC1 [AZD7762] (partner 0.2 µM)
Method in brief: as §1

[1] = compound: C1/C(=C\C2=CC=CS2)/C(=O)/C(=C/C3=CC=CS3)/C1 + Cc1nc(Nc2ncc(C(=O)Nc3c(C)cccc3Cl)s2)cc(N2CCN(CCO)CC2)n1 [Dasatinib] (partner 0.075 µM)
Method in brief: as §1

Row | Cell Line | relative viability (TPCA-1 + Navitoclax; first compound 0.04 µM) | relative viability (TPCA-1 + Navitoclax; first compound 0.1265 µM) | relative viability (TPCA-1 + Navitoclax; first compound 0.4 µM) | relative viability (TPCA-1 + Navitoclax; first compound 1.265 µM) | relative viability (TPCA-1 + Navitoclax; first compound 4 µM) | relative viability (TPCA-1 + Palbociclib; first compound 0.04 µM) | relative viability (TPCA-1 + Palbociclib; first compound 0.1265 µM) | relative viability (TPCA-1 + Palbociclib; first compound 0.4 µM) | relative viability (TPCA-1 + Palbociclib; first compound 1.265 µM) | relative viability (TPCA-1 + Palbociclib; first compound 4 µM) | relative viability (Lestaurtinib + AZD7762; first compound 0.005 µM) | relative viability (Lestaurtinib + AZD7762; first compound 0.01581 µM) | relative viability (Lestaurtinib + AZD7762; first compound 0.05 µM) | relative viability (Lestaurtinib + AZD7762; first compound 0.1581 µM) | relative viability (Lestaurtinib + AZD7762; first compound 0.5 µM) | relative viability ([1]; first compound 0.2 µM) | relative viability ([1]; first compound 0.6325 µM) | relative viability ([1]; first compound 2 µM) | relative viability ([1]; first compound 6.325 µM) | relative viability ([1]; first compound 20 µM)
1 | NCI-H1437 | 1.11 | 1.05 | 1.13 | 1.07 | 1.08 | 0.302 | 0.288 | 0.3 | 0.35 | 0.3 | 1.13 | 1.2 | 0.941 | 1.12 | 0.945 | 0.408 | 0.446 | 0.561 | 0.412 | 0.378
2 | NCI-H1651 | 0.97 | 0.913 | 0.947 | 1.16 | 0.995 | 0.54 | 0.493 | 0.51 | 0.535 | 0.505 | 0.447 | 0.503 | 0.349 | 0.558 | 0.318 | 0.435 | 0.504 | 0.417 | 0.425 | 0.401
3 | NCI-H1666 | 1.12 | 0.848 | 1.03 | 0.943 | 1.05 | 0.653 | 0.661 | 0.605 | 0.673 | 0.64 | 0.753 | 0.903 | 0.933 | 1.01 | 0.654 | 0.833 | 0.847 | 0.811 | 0.786 | 0.875
4 | NCI-H1734 | 0.893 | 0.759 | 0.871 | 0.779 | 0.697 | 0.352 | 0.313 | 0.388 | 0.363 | 0.307 | 0.502 | 0.512 | 0.447 | 0.326 | 0.18 | 0.458 | 0.49 | 0.498 | 0.458 | 0.497
5 | NCI-H1755 | 0.998 | 0.95 | 0.949 | 0.847 | 0.696 | 0.457 | 0.454 | 0.459 | 0.431 | 0.399 | 0.437 | 0.401 | 0.492 | 0.344 | 0.25 | 0.393 | 0.462 | 0.445 | 0.366 | 0.375
6 | NCI-H1792 | 0.714 | 0.622 | 0.677 | 0.621 | 0.279 | 0.707 | 0.562 | 0.593 | 0.574 | 0.496 | 0.758 | 0.669 | 0.556 | 0.387 | 0.174 | 0.774 | 0.613 | 0.968 | 0.758 | 0.752
7 | NCI-H1793 | 0.425 | 0.354 | 0.413 | 0.342 | 0.319 | 0.358 | 0.301 | 0.303 | 0.355 | 0.213 | 0.406 | 0.485 | 0.357 | 0.422 | 0.303 | 0.381 | 0.441 | 0.472 | 0.341 | 0.37
8 | NCI-H1915 | 0.788 | 0.733 | 0.783 | 0.771 | 0.694 | 0.568 | 0.475 | 0.515 | 0.516 | 0.465 | 0.751 | 0.745 | 0.655 | 0.52 | 0.24 | 0.337 | 0.335 | 0.328 | 0.202 | 0.321
9 | NCI-H1944 | 1.07 | 0.949 | 1.06 | 0.921 | 0.823 | 0.354 | 0.336 | 0.293 | 0.319 | 0.225 | 0.609 | 0.514 | 0.623 | 0.487 | 0.228 | 0.225 | 0.202 | 0.217 | 0.225 | 0.19
10 | NCI-H1975 | 1.16 | 1.02 | 1.1 | 0.904 | 0.782 | 0.593 | 0.532 | 0.613 | 0.552 | 0.142 | 0.806 | 0.86 | 0.693 | 0.745 | 0.511 | 0.445 | 0.328 |  | 0.206 | 0.387
11 | NCI-H1993 | 1.01 |  | 0.794 | 0.756 | 0.809 | 0.726 | 0.531 | 0.645 | 0.717 | 0.534 | 0.581 | 0.553 | 0.619 | 0.632 | 0.47 | 0.545 | 0.48 | 0.616 | 0.457 | 0.649
12 | NCI-H2085 | 1.14 | 1.1 | 1.2 | 1.12 | 1.13 |  | 0.47 | 0.489 | 0.443 | 0.46 | 0.917 | 0.938 | 0.941 | 0.98 | 0.827 | 0.233 | 0.258 | 0.221 | 0.237 | 0.236
13 | NCI-H2087 | 1.02 | 0.818 | 0.936 | 0.791 | 0.356 | 0.253 | 0.241 | 0.218 | 0.237 | 0.155 | 1.27 | 1.2 | 1.06 | 0.761 | 0.302 | 0.942 | 0.879 | 1.03 | 0.655 | 0.878
14 | NCI-H2126 | 0.866 | 0.791 | 0.899 | 0.812 | 0.767 | 0.388 | 0.382 | 0.364 | 0.355 | 0.3 | 1.04 | 1.01 | 0.877 | 0.988 | 0.813 | 0.624 | 0.585 | 0.597 | 0.532 | 0.577
15 | NCI-H2170 | 0.666 | 0.52 | 0.497 | 0.559 | 0.264 | 0.413 | 0.404 | 0.417 | 0.391 | 0.275 | 0.847 | 0.784 | 0.655 | 0.83 | 0.241 | 0.47 | 0.632 | 0.639 | 0.622 | 0.511
16 | NCI-H2347 | 0.788 | 0.855 | 0.726 | 0.568 | 0.762 | 0.457 | 0.462 | 0.427 | 0.424 | 0.461 | 0.7 | 0.83 | 0.648 | 0.568 | 0.466 | 0.323 | 0.281 | 0.311 |  | 0.352
